Measured values as given in patent US9820483B2, “Microbial composition” (Rohm and Haas Company, priority 2011, dated 2017).

How the values were obtained:
[1] = test system: Escherichia coli (E. coli—ATCC #10536); assay: Automated assessment of efficacy in model surfactant base (2.85% sodium cocoyl glycinate + 1.85% sodium lauroamphoacetate, pH 10), 15 seconds exposure, delta OD450/OD590 in D/E quench; type: cell-based
Method: Solutions were prepared such that the concentrations of the surfactant components and test actives were 1.1× the final desired concentration in order to allow for dilution with the bacterial inoculum in the test. The solutions were manually adjusted to pH 10.0 by dropwise addition of sodium hydroxide solution, as measured with a pH meter at ambient temperature.
Tests were conducted using standard microtiter plate assays using an automated liquid handling system. 270 μl of the surfactant test solution was pipetted into each well of the microtitre plate and 30 μl of the bacterial suspension was then added. After exactly 15 seconds of bacterial exposure, a 30 μl volume of bacterial cells was withdrawn and transferred to 270 μl of D/E quench solution. After 5 minutes in the D/E quench, the optical density (OD) was measured for each plate in turn at two specific wavelengths (450 nm and 590 nm). These provide a dual check of antimicrobial activity, as the OD450 reading is specific for the yellow colour of D/E quench when bacterial growth is observed, whereas OD590 is specific for the initial purple colour of the D/E quench which is retained if no bacterial growth is observed. After the time zero OD measurements, plates were then incubated at 37° C. overnight (16 hours) before repeating the OD measurements. Delta OD values were calculated by subtracting […]. Bacterial growth is observed as an increase in OD450 and a decrease in ΔOD590. To identify antibacterially efficacious systems (those preventing appreciable bacterial growth after incubation), the following threshold changes in OD readings have been adopted: if (1). OD450 increases by less than 0.2 absorbance unit on incubation and (2). OD590 decreases by less than 0.35 unit on incubation. Conversely, where OD450 increases by more than 0.2 AU and OD590 decreases by more than 0.35 unit after incubation, corresponding to a colour shift from purple to yellow, the test system allows bacterial growth and is not deemed efficacious. Four replicate measurements in the same plate have been made for each test system. The number of replicate wells showing either bacterial growth or no growth is also readily assessed by eye by following the colour change.
Dose responses for individual components and binary mixtures of actives at a fixed concentration ratio were generated by sequential dilution of liquors with further surfactant solution to obtain a series of endpoints.
In some selected cases, the combinations were also tested at the weight ratio 1:1.
The method used was the same as in the above Table.

E. coli ATCC #10536 = assay: Synergy test: high resolution MBC microtiter plate assay in phosphate buffer containing 35% dipropylene glycol, 15 seconds contact; type: cell-based, Escherichia coli; conditions: for MBC of the component acting alone (QA or QB; Qa or Qb with the other component at 0): E. coli 10536, complete kill in 15 seconds, phosphate buffer with 35% DPG
From the text: One measure of synergy is the industrially accepted method described by Kull, F. C.; Eisman. P. C.; Sylwestrowicz, H. D. and Mayer, R. L., in Applied Microbiology 9:538-541 (1961), using the ratio determined by the formula: Qa/QA÷Qb/QB=Synergy Index (“SI”) wherein: QA=concentration of compound A (first component) in percent, acting alone, which produced an end point (MBC of Compound A). […]=concentration of compound A in percent, in the mixture, which produced an end point. QB=concentration of compound B (second component) in percent, acting alone, which produced an end point (MBC of Compound B). Qb=concentration of compound B in percent, in the mixture, which produced an end point.
When the sum of Qa/QA and Qb/QB is greater than one, antagonism is indicated. […] The lower the SI, the greater is the synergy shown by that particular mixture. The minimum biocidal concentration (MBC) of a microbicide is the lowest concentration tested under a specific set of conditions that provides complete kill of the tested microorganisms.
Synergy tests were conducted using standard microtiter plate assays with phosphate buffer containing 35% dipropylene glycol (DPG). In this method, a wide range of combinations of chemicals was tested by conducting high resolution MBC assays of Component (A) in the presence of various concentrations of Component (B). High resolution MBCs were determined by adding varying amounts of microbicide to one column of a microtiter plate and doing subsequent ten-fold dilutions using an automated liquid handling system to obtain a series of closely spaced endpoints. The MBC plate was inoculated one column at a time with the test microorganism. An aliquot of the inoculated well was transferred at 15 seconds to a plate containing a neutralizing agent (D/E Neutralizing Broth), mixed and held for 5 minutes before being transferred to a growth plate containing trypticase soy broth (TSB). The TSB plate was incubated at 37° C. and read for the presence/absence of growth at 24 hours. The lowest level tested that provided complete kill (as evidenced by no growth in the microtitre plate) of the test organisms in 15 seconds is the minimum biocidal concentration (MBC).
The synergy of the combinations of the present invention was determined against a bacterium, Esherichia coli (E. coli—ATCC #10536), at a concentration of approximately 1×10^8 bacteria per mL. This microorganism is representative of natural contaminants in many consumer and industrial applications.

Structure (SMILES) | Δ OD 590 nm = OD590 (time = 16 hours) − OD590 (time zero), Mean ([1]; single active at […] w/v) | ΔOD 450 nm = OD450 (time = 16 hours) − OD450 (time zero), Mean ([1]; single active at […] w/v) | MBC of the component acting alone (QA or QB; Qa or Qb with the other component at 0) (E. coli ATCC #10536) | Δ OD 590 nm = OD590 (time = 16 hours) − OD590 (time zero), Mean ([1]; single active at 0.1% w/v) | No. of replicates showing growth (out of 4) ([1]; single active at 0.2% w/v) | Δ OD 590 nm = OD590 (time = 16 hours) − OD590 (time zero), Mean ([1]; single active at 0.2% w/v) | ΔOD 450 nm = OD450 (time = 16 hours) − OD450 (time zero), Mean ([1]; single active at 0.2% w/v) | further results
CCC1CCC(C(CO)CO)CC1 (centres unmarked) | 0.56 | −0.54 |  |  |  |  |  | No. of replicates showing growth (out of 4) ([1]; single active at 0.4% w/v): 4; Δ OD 590 nm = OD590 (time = 16 hours) − OD590 (time zero), Mean ([1]; single active at 0.4% w/v): 0.56; ΔOD 450 nm = OD450 (time = 16 hours) − OD450 (time zero), Mean ([1]; single active at 0.4% w/v): −0.49; No. of replicates showing growth (out of 4) ([1]; single active at 0.5% w/v): 4; Δ OD 590 nm = OD590 (time = 16 hours) − OD590 (time zero), Mean ([1]; single active at 0.5% w/v): 0.590; ΔOD 450 nm = OD450 (time = 16 hours) − OD450 (time zero), Mean ([1]; single active at 0.5% w/v): −0.48; No. of replicates showing growth (out of 4) ([1]; single active at […] w/v): 4
CCCC(=O)OC(C)(C)C1CC=C(C)CC1 (centres unmarked) [2-(4-methylcyclohex-3-enyl)propan-2-yl butyrate] |  |  | 2.4 weight % |  |  |  |  | 
CCCC1CCC(C(CO)CO)CC1 [2-((1S,4R)-4-propylcyclohexyl)propane-1,3-diol] |  |  | 2.5 weight % |  |  |  |  | 
CC[C@H]1CC[C@H](C(CO)CO)CC1 [2-(trans-4-ethylcyclohexyl)propane-1,3-diol] |  |  |  |  |  |  |  | MBC ([1]; Escherichia coli, ATCC10536, 15 s, in 2.85% sodium cocoyl glycinate + 1.85% sodium lauroamphoacetate solution at pH 10, E. coli, read-out: MBC): > 2000 µg/mL
CCC(C)c1ccccc1O (centres unmarked) [2-sec-butylphenol] | 0.50 | −0.41 | 0.3 weight % | 0.36 |  |  |  | Δ OD 590 nm = OD590 (time = 16 hours) − OD590 (time zero), Mean ([1]; single active at 0.05% w/v): 0.30; ΔOD 450 nm = OD450 (time = 16 hours) − OD450 (time zero), Mean ([1]; single active at 0.05% w/v): −1.50
CC(C)(C)c1ccccc1O [2-tert-butylphenol] |  |  |  | 0.23 | 0 | 0.07 | −0.04 | Δ OD 590 nm = OD590 (time = 16 hours) − OD590 (time zero), Mean ([1]; single active at 0.05% w/v): 0.22; No. of replicates showing growth (out of 4) ([1]; single active at 0.1% w/v): 4; ΔOD 450 nm = OD450 (time = 16 hours) − OD450 (time zero), Mean ([1]; single active at 0.1% w/v): −1.55; Δ OD 590 nm = OD590 (time = 16 hours) − OD590 (time zero), Mean ([1]; single active at 0.125% w/v): 0.30
Cc1cc(O)cc(C(C)C)c1 [3-isopropyl-5-methylphenol] |  |  | 0.3 weight % |  |  |  |  | 
CCCc1cccc(O)c1 [3-n-propylphenol] | 0.56 | −0.63 |  |  | 4 | 0.56 | −0.57 | No. of replicates showing growth (out of 4) ([1]; single active at 0.125% w/v): 4; Δ OD 590 nm = OD590 (time = 16 hours) − OD590 (time zero), Mean ([1]; single active at 0.125% w/v): 0.57; ΔOD 450 nm = OD450 (time = 16 hours) − OD450 (time zero), Mean ([1]; single active at 0.125% w/v): −0.59
CC(C)(C)c1cccc(O)c1 [3-tert-butylphenol] |  |  | 0.3 weight % |  |  | 0.64 | −0.47 | Δ OD 590 nm = OD590 (time = 16 hours) − OD590 (time zero), Mean ([1]; single active at 0.125% w/v): 0.65; ΔOD 450 nm = OD450 (time = 16 hours) − OD450 (time zero), Mean ([1]; single active at 0.125% w/v): −0.45
Cc1cc(O)ccc1C(C)C [4-isopropyl-3-methylphenol] |  |  | 0.3 weight % | 0.24 | 4 | 0.36 | −1.41 | Δ OD 590 nm = OD590 (time = 16 hours) − OD590 (time zero), Mean ([1]; single active at 0.05% w/v): 0.25; ΔOD 450 nm = OD450 (time = 16 hours) − OD450 (time zero), Mean ([1]; single active at 0.05% w/v): −1.52; ΔOD 450 nm = OD450 (time = 16 hours) − OD450 (time zero), Mean ([1]; single active at 0.1% w/v): −1.50
CCCCc1ccc(O)cc1 [4-n-butylphenol] | 0.54 | −0.61 |  | 0.53 |  | 0.58 | −0.54 | ΔOD 450 nm = OD450 (time = 16 hours) − OD450 (time zero), Mean ([1]; single active at 0.1% w/v): −0.61
CCCc1ccc(O)cc1 [4-propylphenol] |  |  |  | 0.34 |  | 0.43 | −1.49 | 
CCC(C)c1ccc(O)cc1 (centres unmarked) [4-sec-butylphenol] | 0.60 | −0.53 | 0.2 weight % |  | 4 | 0.59 | −0.56 | Δ OD 590 nm = OD590 (time = 16 hours) − OD590 (time zero), Mean ([1]; single active at 0.125% w/v): 0.60; ΔOD 450 nm = OD450 (time = 16 hours) − OD450 (time zero), Mean ([1]; single active at 0.125% w/v): −0.56
Cc1ccc(C(C)C)cc1O [5-isopropyl-2-methylphenol] | 0.64 | −0.52 |  |  | 4 | 0.62 | −0.52 | SI (Synergy Index) (E. coli ATCC #10536): 1.00; No. of replicates showing growth (out of 4) ([1]; single active at 0.125% w/v): 4; Δ OD 590 nm = OD590 (time = 16 hours) − OD590 (time zero), Mean ([1]; single active at 0.125% w/v): 0.63; ΔOD 450 nm = OD450 (time = 16 hours) − OD450 (time zero), Mean ([1]; single active at 0.125% w/v): −0.50; No. of replicates showing growth (out of 4) ([1]; single active at […] w/v): 4
C=C(C)[C@@H]1CC[C@@H](C)C[C@H]1O [(1R,2S,5R)-5-methyl-2-(prop-1-en-2-yl)cyclohexanol] |  |  | 0.5 weight % |  |  |  |  | 
CC(=O)O[C@H]1C[C@H](C)CC[C@H]1C(C)C [(1S,2S,5R)-2-isopropyl-5-methylcyclohexyl acetate] |  |  | 2.4 weight % |  |  |  |  | 
C/C=C/c1ccccc1O [(E)-2-(prop-1-enyl)phenol] | 0.58 | −0.57 |  | 0.59 | 4 | 0.63 | −0.53 | No. of replicates showing growth (out of 4) ([1]; single active at 0.1% w/v): 4; ΔOD 450 nm = OD450 (time = 16 hours) − OD450 (time zero), Mean ([1]; single active at 0.1% w/v): −0.60; No. of replicates showing growth (out of 4) ([1]; single active at […] w/v): 4
